Measured values published in US6780414B2 (priority 1998, dated 2004).
Like-named read-outs stand apart in the source and are kept apart here.

Columns and labels:
[1] = test system: S. flexneri 2a strain 2457T; format: cell-based, Shigella flexneri 2a; details: 2457T + 1 mM supplement present only during the two hour invasion period
[2] = test system: S. flexneri-induced PMN transepithelial migration; assay: PMN transepithelial migration assay across T84 cell monolayers
[3] = molecular target: cholera toxin (Vibrio cholerae serotype O1, UniProt P01555+P01556); format: cell-based
[4] = test system: Tsh-associated toxin; assay: Ussing chamber assay, effect of cadaverine on Tsh-associated toxin; format: cell-based, avian pathogenic Escherichia coli; details: toxin mucosal side; cadaverine (400 μM) both sides
[5] = test system: heat stable toxin (STa); assay: Ussing chamber assay, effect of cadaverine on heat stable toxin (STa); format: cell-based, enterotoxigenic Escherichia coli
[6] = molecular target: T1, Shiga toxin (Shigella dysenteriae, UniProt Q7BQ98+Q9FBI2); format: cell-based, Shigella dysenteriae 1
[7] = test system: BS103; details: T84 monolayers, mean ± SEM
[8] = molecular target: T1, Shiga toxin; details: cadaverine 400 μM unless otherwise indicated
[9] = molecular target: stable toxin (YST-I) (Yersinia enterocolitica, UniProt P07593); assay: Ussing chamber assay, effect of cadaverine on YST-I; format: cell-based
[10] = test system: ShET-1 and ShET-2; format: cell-based, Shigella flexneri 2a
[11] = test system: ShET-1 and ShET-2; assay: Fluid accumulation in ileal loops, effect of cadaverine; format: in vivo, Shigella flexneri 2a; details: cadaverine 400 μM unless otherwise indicated
[12] = test system: cytolethal distending toxin; assay: Ussing chamber assay, effect of cadaverine on cytolethal distending toxin; format: cell-based, Campylobacter jejuni
[13] = test system: stable toxin (YST-11); assay: Ussing chamber assay, effect of cadaverine on YST-11; format: cell-based, Yersinia enterocolitica; details: toxin mucosal side; cadaverine (400 μM) both sides
[14] = test system: mxiA::lacZ; format: cell-based, S. flexneri 2a
[15] = test system: representative virulence genes; format: cell-based, S. flexneri 2a
[16] = test system: spa47::lacZ; format: cell-based, S. flexneri 2a
[17] = test system: ipaB::lacZ; format: cell-based, S. flexneri 2a
[18] = cadaverine 400 μM unless otherwise indicated
[19] = toxin mucosal side, cadaverine (400 μM) both sides

T1 sequence (Q9FBI2 23-315 limits assumed): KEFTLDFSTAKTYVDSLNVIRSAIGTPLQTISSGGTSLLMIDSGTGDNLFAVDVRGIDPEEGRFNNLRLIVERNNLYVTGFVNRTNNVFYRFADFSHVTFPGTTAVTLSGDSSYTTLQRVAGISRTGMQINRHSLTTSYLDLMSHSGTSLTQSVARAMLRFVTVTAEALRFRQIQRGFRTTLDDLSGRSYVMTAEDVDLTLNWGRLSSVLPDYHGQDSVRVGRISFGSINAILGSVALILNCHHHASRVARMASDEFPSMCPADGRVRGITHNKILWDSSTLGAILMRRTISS
T1 sequence (Q7BQ98 21-89 limits assumed): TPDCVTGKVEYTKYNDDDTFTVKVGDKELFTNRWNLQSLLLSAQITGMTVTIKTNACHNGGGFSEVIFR
Chain of cholera toxin (P01555 19-258 limits assumed): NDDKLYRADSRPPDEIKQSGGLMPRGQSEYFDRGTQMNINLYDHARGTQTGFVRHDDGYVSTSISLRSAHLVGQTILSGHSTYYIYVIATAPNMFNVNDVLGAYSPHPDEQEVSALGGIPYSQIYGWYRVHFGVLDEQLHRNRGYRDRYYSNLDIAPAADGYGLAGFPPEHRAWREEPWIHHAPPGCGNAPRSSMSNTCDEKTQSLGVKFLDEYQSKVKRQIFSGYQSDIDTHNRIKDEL
Chain of cholera toxin (P01556 22-124 limits assumed): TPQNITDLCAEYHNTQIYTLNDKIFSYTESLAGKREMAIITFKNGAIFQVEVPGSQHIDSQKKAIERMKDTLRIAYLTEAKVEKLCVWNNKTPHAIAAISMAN

O=C(O)c1ccc[n+]([C@@H]2O[C@H](COP(=O)(O)O)[C@@H](O)[C@H]2O)c1 [nicotinic acid mononucleotide]
% FIREWORKS [1]: 17% | % INVASION [1]: 82%

NCCCCCN [cadaverine, 1,5-diaminopentane]
ability of S. flexneri to promote PMN transepithelial migration ([2]; 2457T added basolaterally together with cadaverine 100, 300 and 500 μM (FIG. 3)): dose dependent decrease | down regulation of S. flexneri-induced PMN transepithelial migration ([2]; T84 infected with 2457T 1 hr, then apical cadaverine 300 μM 30 min (FIG. 5)): 60% | Effect of Cadaverine, enterotoxicity in Ussing chambers [3, 18]: none | ΔIsc + cadaverine [3, 19]: 70.9 | ΔIsc + cadaverine [4]: 23.3 | Effect of Cadaverine, enterotoxicity in Ussing chambers [5, 18]: none | ΔIsc + cadaverine [5, 19]: 75.9 | Effect of Cadaverine, enterotoxicity in Ussing chambers [6, 18]: blocked; | ΔIsc + cadaverine [6, 19]: −13.6 | % Association BS103 ([7]; 100 μM cadaverine): 4.37 ± 1.64% | % Internalization BS103 ([7]; 100 μM cadaverine): 0.08 ± 0.02% | % Association BS103 ([7]; 300 μM cadaverine): 3.14 ± 0.75% | % Internalization BS103 ([7]; 300 μM cadaverine): 0.03 ± 0.01% | % Association BS103 ([7]; 500 μM cadaverine): 2.11 ± 0.90% | % Internalization BS103 ([7]; 500 μM cadaverine): 0.01 ± 0.01% | Effect of Cadaverine, cytotoxicity in Vero cells [8]: none | Effect of Cadaverine, enterotoxicity in Ussing chambers [9, 18]: completely | ΔIsc + cadaverine [9, 19]: −11.0 | Effect of Cadaverine, enterotoxicity in Ussing chambers [10]: blocked | ΔIsc + cadaverine [10]: 2.7 | ΔIsc as % of the value in tissues not pretreated [10]: 40% | Effect of Cadaverine, fluid accumulation in ileal loops [11]: both completely | Effect of Cadaverine, enterotoxicity in Ussing chambers [12, 18]: completely | ΔIsc + cadaverine [12, 19]: −18.7 | ΔIsc + cadaverine [13]: 32.4

O=C(O)c1cccnc1 [nicotinic acid]
% FIREWORKS [1]: 17% | % INVASION [1]: 85%

O=C(O)c1cccnc1C(=O)O [quinolinate]
Miller Units of activity [14]: 196.5 ± 2.0 Miller Units | reduction of virulence gene expression [15]: about 50% | Miller Units of activity [16]: 312.3 ± 6.5 Miller Units | % FIREWORKS [1]: 0% | % INVASION [1]: 0.5% | Miller Units of activity [17]: 140.5 ± 2.9 Miller Units
